Source: patent publication US8710065B2, “Tricyclic inhibitors of kinases” (AbbVie Inc., priority 2011, dated 2014)

What follows are molecules tested against T1, GST-tagged-Wee1 kinase (Homo sapiens, UniProt P30291) (assay: Wee1 time-resolved fluorescence equilibrium binding assay (displacement of Oregon Green-labeled ATP-competitive kinase probe)). Conditions: read-out: Wee-1 inhibition (Ki).
T1 construct: purchased Carnabio (Carna Biosciences) 05-177
In short: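 Time-resolved fluorescence equilibrium binding with GST-Wee1, measuring displacement of a rapidly reversible Oregon Green-labelled ATP-competitive probe by competitive inhibitors; values reported as Ki.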

T1 sequence (P30291 whole entry): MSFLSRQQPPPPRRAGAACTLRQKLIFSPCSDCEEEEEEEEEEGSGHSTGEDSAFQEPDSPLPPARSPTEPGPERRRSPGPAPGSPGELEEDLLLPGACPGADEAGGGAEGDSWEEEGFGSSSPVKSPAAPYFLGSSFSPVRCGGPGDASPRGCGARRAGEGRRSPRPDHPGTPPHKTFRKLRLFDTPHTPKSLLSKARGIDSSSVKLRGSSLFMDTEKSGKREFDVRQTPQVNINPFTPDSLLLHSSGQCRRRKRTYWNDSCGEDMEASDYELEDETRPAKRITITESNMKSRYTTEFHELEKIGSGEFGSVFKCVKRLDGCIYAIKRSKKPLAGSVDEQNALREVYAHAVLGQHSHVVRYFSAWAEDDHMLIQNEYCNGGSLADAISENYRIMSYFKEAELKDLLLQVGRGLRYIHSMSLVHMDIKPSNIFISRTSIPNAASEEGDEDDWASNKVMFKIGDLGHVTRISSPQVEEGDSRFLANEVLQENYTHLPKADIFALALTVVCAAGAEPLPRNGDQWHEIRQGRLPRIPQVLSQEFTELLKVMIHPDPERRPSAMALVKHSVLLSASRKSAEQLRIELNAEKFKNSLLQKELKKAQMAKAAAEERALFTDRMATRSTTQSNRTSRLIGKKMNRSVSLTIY

First: COc1ccc(-n2c(=O)c3cnc(Nc4ccc(N5CCN(C)CC5)cc4)nc3n3ccnc23)c(OC)c1 [Example 338, 6-(2,4-dimethoxyphenyl)-2-{[4-(4-methylpiperazin-1-yl)phenyl]amino}imidazo[1,2-a]pyrimido[5,4-e]pyrimidin-5(6H)-one]
Second: CN1CCN(c2ccc(Nc3ncc4c(=O)n(-c5c(F)cc(F)cc5Cl)c5nccn5c4n3)cc2)CC1 [Example 186, 6-(2-chloro-4,6-difluorophenyl)-2-{[4-(4-methylpiperazin-1-yl)phenyl]amino}imidazo[1,2-a]pyrimido[5,4-e]pyrimidin-5(6H)-one]
The Ki of the first is higher: > 100 nM for the first, < 10 nM for the second. The second binds more tightly here.

First: NC(=O)C1CCN(c2ccc(Nc3ncc4c(=O)n(-c5ccccc5Cl)c5nccn5c4n3)cc2)CC1 [Example 235, 1-(4-{[6-(2-chlorophenyl)-5-oxo-5,6-dihydroimidazo[1,2-a]pyrimido[5,4-e]pyrimidin-2-yl]amino}phenyl)piperidine-4-carboxamide]
Second: CN1CCN(C(=O)c2ccc(Nc3ncc4c(=O)n(-c5ccccc5Cl)c5nccn5c4n3)cc2)CC1 [Example 42, 6-(2-chlorophenyl)-2-({4-[(4-methylpiperazin-1-yl)carbonyl]phenyl}amino)imidazo[1,2-a]pyrimido[5,4-e]pyrimidin-5(6H)-one]
The Ki of the first is lower: < 10 nM for the first, 10 to 100 nM for the second. The first binds more tightly here.

`O=c1c2cnc(Nc3ccc(-c4cn5ccccc5n4)cc3)nc2n2ccnc2n1-c1ccccc1Cl` [Example 218, 6-(2-chlorophenyl)-2-{[4-(imidazo[1,2-a]pyridin-2-yl)phenyl]amino}imidazo[1,2-a]pyrimido[5,4-e]pyrimidin-5(6H)-one] and `O=c1c2cnc(Nc3ccc(-c4cn5ccsc5n4)cc3)nc2n2ccnc2n1-c1ccccc1Cl` [Example 222, 6-(2-chlorophenyl)-2-{[4-(imidazo[2,1-b][1,3]thiazol-6-yl)phenyl]amino}imidazo[1,2-a]pyrimido[5,4-e]pyrimidin-5(6H)-one] fall in the same range of Ki: 10 to 100 nM for the first, 10 to 100 nM for the second.

`CN(C)C1Cc2ccc(Nc3ncc4c(=O)n(-c5c(Cl)cccc5Cl)c5nccn5c4n3)cc2C1` (stereo not shown) [Example 114, 6-(2,6-dichlorophenyl)-2-{[2-(dimethylamino)-2,3-dihydro-1H-inden-5-yl]amino}imidazo[1,2-a]pyrimido[5,4-e]pyrimidin-5(6H)-one] and `CCN(CC)C1Cc2ccc(Nc3ncc4c(=O)n(-c5c(F)cccc5Cl)c5nccn5c4n3)cc2C1` (stereo not shown) [Example 226, 6-(2-chloro-6-fluorophenyl)-2-{[2-(diethylamino)-2,3-dihydro-1H-inden-5-yl]amino}imidazo[1,2-a]pyrimido[5,4-e]pyrimidin-5(6H)-one] cannot be ordered by Ki: < 10 nM for the first, < 10 nM for the second.

`CN1Cc2cc(Nc3ncc4c(=O)n(-c5c(F)cccc5Cl)c5nccn5c4n3)ccc2C2(CC2)C1` [Example 140, 6-(2-chloro-6-fluorophenyl)-2-[(2′-methyl-2′,3′-dihydro-1′H-spiro[cyclopropane-1,4′-isoquinolin]-7′-yl)amino]imidazo[1,2-a]pyrimido[5,4-e]pyrimidin-5(6H)-one] and `CN1Cc2cc(Nc3ncc4c(=O)n(-c5ccccc5Cl)c5nccn5c4n3)ccc2C2(CC2)C1` [Example 4, 6-(2-chlorophenyl)-2-[(2′-methyl-2′,3′-dihydro-1′H-spiro[cyclopropane-1,4′-isoquinolin]-7′-yl)amino]imidazo[1,2-a]pyrimido[5,4-e]pyrimidin-5(6H)-one] cannot be ordered by Ki: < 10 nM for the first, < 10 nM for the second.

`CC(C)N1C(=O)CSC1c1ccc(Nc2ncc3c(=O)n(-c4ccccc4Cl)c4nccn4c3n2)cc1` (stereo not shown) [Example 219, 6-(2-chlorophenyl)-2-({4-[4-oxo-3-(propan-2-yl)-1,3-thiazolidin-2-yl]phenyl}amino)imidazo[1,2-a]pyrimido[5,4-e]pyrimidin-5(6H)-one] and `CN1CCc2ccc(Nc3ncc4c(=O)n(-c5ccccc5Cl)c5nccn5c4n3)cc2C1` [Example 34, 6-(2-chlorophenyl)-2-[(2-methyl-1,2,3,4-tetrahydroisoquinolin-7-yl)amino]imidazo[1,2-a]pyrimido[5,4-e]pyrimidin-5(6H)-one] cannot be ordered by Ki: < 10 nM for the first, < 10 nM for the second.

`O=C1CCC(c2ccc(Nc3ncc4c(=O)n(-c5c(Cl)cccc5Cl)c5nccn5c4n3)cc2)=NN1` [Example 180, 6-(2,6-dichlorophenyl)-2-{[4-(6-oxo-1,4,5,6-tetrahydropyridazin-3-yl)phenyl]amino}imidazo[1,2-a]pyrimido[5,4-e]pyrimidin-5(6H)-one] and `CS(=O)(=O)N1CCC(Nc2ccc(Nc3ncc4c(=O)n(-c5c(Cl)cccc5Cl)c5nccn5c4n3)cc2)CC1` [Example 322, 6-(2,6-dichlorophenyl)-2-[(4-{[1-(methylsulfonyl)piperidin-4-yl]amino}phenyl)amino]imidazo[1,2-a]pyrimido[5,4-e]pyrimidin-5(6H)-one] cannot be ordered by Ki: < 10 nM for the first, < 10 nM for the second.

`Cc1cc(Nc2ncc3c(=O)n(-c4ccccc4Cl)c4nccn4c3n2)ccc1N1CCN(C)CC1` [Example 22, 6-(2-chlorophenyl)-2-{[3-methyl-4-(4-methylpiperazin-1-yl)phenyl]amino}imidazo[1,2-a]pyrimido[5,4-e]pyrimidin-5(6H)-one] and `CN1CCN(c2ccc(Nc3ncc4c(=N)n(-c5ccccc5Cl)c5nccn5c4n3)cc2)CC1` [Example 333, 6-(2-chlorophenyl)-5-imino-N-[4-(4-methylpiperazin-1-yl)phenyl]-5,6-dihydroimidazo[1,2-a]pyrimido[5,4-e]pyrimidin-2-amine] cannot be ordered by Ki: < 10 nM for the first, < 10 nM for the second.

`Cc1nnc2n(-c3ccccc3Cl)c(=O)c3cnc(Nc4ccc(N5CCN(C)CC5)cc4)nc3n12` [Example 27, 6-(2-chlorophenyl)-9-methyl-2-{[4-(4-methylpiperazin-1-yl)phenyl]amino}pyrimido[5,4-e][1,2,4]triazolo[4,3-a]pyrimidin-5(6H)-one] and `O=c1c2cnc(Nc3ccc(N4CCN(Cc5cccc(Cl)c5)CC4)cc3)nc2n2ccnc2n1-c1ccccc1Cl` [Example 63, 2-({4-[4-(3-chlorobenzyl)piperazin-1-yl]phenyl}amino)-6-(2-chlorophenyl)imidazo[1,2-a]pyrimido[5,4-e]pyrimidin-5(6H)-one] fall in the same range of Ki: 10 to 100 nM for the first, 10 to 100 nM for the second.

`O=c1c2cnc(Nc3ccccc3)nc2n2ccnc2n1-c1ccccc1Cl` [Example 2, 2-anilino-6-(2-chlorophenyl)imidazo[1,2-a]pyrimido[5,4-e]pyrimidin-5(6H)-one] and `O=C1COc2ccc(Nc3ncc4c(=O)n(-c5ccccc5Cl)c5nccn5c4n3)cc2N1` [Example 19, 6-(2-chlorophenyl)-2-[(3-oxo-3,4-dihydro-2H-1,4-benzoxazin-6-yl)amino]imidazo[1,2-a]pyrimido[5,4-e]pyrimidin-5(6H)-one] fall in the same range of Ki: 10 to 100 nM for the first, 10 to 100 nM for the second.

`O=c1c2cnc(Nc3ccc4c(c3)CN(S(=O)(=O)C3CC3)CC43CC3)nc2n2ccnc2n1-c1c(Cl)cccc1Cl` [Example 285, 2-{[2′-(cyclopropylsulfonyl)-2′,3′-dihydro-1′H-spiro[cyclopropane-1,4′-isoquinolin]-7′-yl]amino}-6-(2,6-dichlorophenyl)imidazo[1,2-a]pyrimido[5,4-e]pyrimidin-5(6H)-one] and `CC1(C)CN(S(C)(=O)=O)Cc2cc(Nc3ncc4c(=O)n(-c5c(F)cccc5Cl)c5nccn5c4n3)ccc21` [Example 312, 6-(2-chloro-6-fluorophenyl)-2-{[4,4-dimethyl-2-(methylsulfonyl)-1,2,3,4-tetrahydroisoquinolin-7-yl]amino}imidazo[1,2-a]pyrimido[5,4-e]pyrimidin-5(6H)-one] cannot be ordered by Ki: < 10 nM for the first, < 10 nM for the second.

First: O=c1c2cnc(Nc3ccc(-c4ccc5cccnc5n4)cc3)nc2n2ccnc2n1-c1ccccc1Cl [Example 351, 6-(2-chlorophenyl)-2-{[4-(1,8-naphthyridin-2-yl)phenyl]amino}imidazo[1,2-a]pyrimido[5,4-e]pyrimidin-5(6H)-one]
Second: O=c1c2cnc(Nc3ccc(OC[C@@H]4CCCN4)cc3)nc2n2ccnc2n1-c1ccccc1Cl [Example 76, 6-(2-chlorophenyl)-2-({4-[(2S)-pyrrolidin-2-ylmethoxy]phenyl}amino)imidazo[1,2-a]pyrimido[5,4-e]pyrimidin-5(6H)-one]
The Ki of the first is higher: 10 to 100 nM for the first, < 10 nM for the second.

`CC1(C)CN(S(N)(=O)=O)Cc2cc(Nc3ncc4c(=O)n(-c5c(F)cccc5Cl)c5nccn5c4n3)ccc21` [Example 317, 7-{[6-(2-chloro-6-fluorophenyl)-5-oxo-5,6-dihydroimidazo[1,2-a]pyrimido[5,4-e]pyrimidin-2-yl]amino}-4,4-dimethyl-3,4-dihydroisoquinoline-2(1H)-sulfonamide] and `CC1(C)CN(CCF)Cc2cc(Nc3ncc4c(=O)n(-c5c(Cl)cccc5Cl)c5nccn5c4n3)ccc21` [Example 302, 6-(2,6-dichlorophenyl)-2-{[2-(2-fluoroethyl)-4,4-dimethyl-1,2,3,4-tetrahydroisoquinolin-7-yl]amino}imidazo[1,2-a]pyrimido[5,4-e]pyrimidin-5(6H)-one] cannot be ordered by Ki: < 10 nM for the first, < 10 nM for the second.

First: O=C(O[C@@H]1CCCN2CCCCC12)c1ccc(Nc2ncc3c(=O)n(-c4c(Cl)cccc4Cl)c4nccn4c3n2)cc1 (stereo partly drawn) [Example 200, (1R)-octahydro-2H-quinolizin-1-yl 4-{[6-(2,6-dichlorophenyl)-5-oxo-5,6-dihydroimidazo[1,2-a]pyrimido[5,4-e]pyrimidin-2-yl]amino}benzoate]
Second: Cc1cc(Nc2ncc3c(=O)n(-c4c(Cl)cccc4Cl)c4nccn4c3n2)ccc1N1CCCNCC1 [Example 345, 2-{[4-(1,4-diazepan-1-yl)-3-methylphenyl]amino}-6-(2,6-dichlorophenyl)imidazo[1,2-a]pyrimido[5,4-e]pyrimidin-5(6H)-one]
The Ki of the first is lower: < 10 nM for the first, 10 to 100 nM for the second. The first binds more tightly here.

`O=c1c2cnc(Nc3ccc(NCCN4CCCC4)cc3)nc2n2ccnc2n1-c1ccccc1Cl` [Example 246, 6-(2-chlorophenyl)-2-[(4-{[2-(pyrrolidin-1-yl)ethyl]amino}phenyl)amino]imidazo[1,2-a]pyrimido[5,4-e]pyrimidin-5(6H)-one] and `CC(=O)N1CCN(c2ccc(Nc3ncc4c(=O)n(-c5c(F)cccc5Cl)c5nccn5c4n3)cc2)CC1` [Example 158, 2-{[4-(4-acetylpiperazin-1-yl)phenyl]amino}-6-(2-chloro-6-fluorophenyl)imidazo[1,2-a]pyrimido[5,4-e]pyrimidin-5(6H)-one] cannot be ordered by Ki: < 10 nM for the first, < 10 nM for the second.

In the case of `CC(C)CC(N(C)C)C1(c2ccc(Nc3ncc4c(=O)n(-c5c(Cl)cccc5Cl)c5nccn5c4n3)cc2)CCC1` (stereo not shown) [Example 196], the Ki is reported as < 10 nM.
